# Patent publication US20100209542A1, “Methods For Treating Withdrawal From Addictive Compounds” (priority 2008, published 2010)
# Assays:
# opioid receptors = conditions: guinea pig ileum, compared with morphine; cited from earlier work
# mice = conditions: cited from earlier work
# [1] = test system: morphine withdrawal symptoms; test: naloxone-precipitated morphine withdrawal symptoms after replacement with compound; assay type: in vivo, mice; conditions: for Jumping Frequency / Last Day % Weight Control / Locomotor Activity / Paw Tremor Frequency / Teeth Chattering Frequency / Wet Dog Shakes Frequency: + 10 mg/kg naloxone i.p.
# Procedure: (§1) In this experiment mice were chronically administered either morphine using an increasing dose paradigm starting at 20 mg/kg and ending at 100 mg/kg (i.p.) or a saline vehicle control for six days. […] Morphine withdrawal symptoms were initiated by the injection of naloxone (10 mg/kg; i.p.). Kratom extract and mitragyine reduced naloxone-precipitated morphine withdrawal symptoms in a similar manner as methadone.
# withdrawal symptoms = test: compound followed by naloxone administration (control values); assay type: in vivo, mice
# Procedure: as §1
# delta-opioid receptor = target: T1, delta-opioid receptor (Cavia porcellus, UniProt A0A286XTF2); conditions: guinea pig brain membranes; cited from earlier work
# T1 construct: determined using guinea pig brain membranes; from tissue; host or cells: guinea pig brain membranes
# [2] = mitragynine sample stability in validation of the detection method; conditions: short-term (4 h at room temperature), freeze-thaw (3 cycles), post-processing (16 h at 12° C.); any concentration tested
# Excerpt: The coefficient of variation and relative error values at the three concentrations were obtained in the intra- and inter-day assays. See, FIG. 3.
# Adenosine A2A = target: T2, Adenosine A2A (Homo sapiens, UniProt P29274); test: high throughput radioligand binding screen, Adenosine A2A
# T2 construct: Novascreen Biosciences Corp
# [3] = animal studies; cited from earlier work
# Serotonin, 5HT2C = target: T3, Serotonin, 5HT2C (Homo sapiens, UniProt P28335); test: high throughput radioligand binding screen, Serotonin 5HT2C
# T3 construct: Novascreen Biosciences Corp
# T3 sequence (P28335 33-458): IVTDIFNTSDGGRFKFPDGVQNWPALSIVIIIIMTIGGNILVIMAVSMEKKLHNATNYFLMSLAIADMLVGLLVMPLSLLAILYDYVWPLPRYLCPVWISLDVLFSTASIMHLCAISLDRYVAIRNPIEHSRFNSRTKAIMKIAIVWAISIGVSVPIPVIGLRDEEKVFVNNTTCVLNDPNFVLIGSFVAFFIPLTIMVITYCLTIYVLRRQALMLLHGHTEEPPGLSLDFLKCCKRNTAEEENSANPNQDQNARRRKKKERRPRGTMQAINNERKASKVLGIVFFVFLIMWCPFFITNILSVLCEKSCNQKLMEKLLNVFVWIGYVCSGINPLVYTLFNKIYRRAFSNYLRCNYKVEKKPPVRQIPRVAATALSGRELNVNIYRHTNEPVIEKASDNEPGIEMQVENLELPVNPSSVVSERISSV
# Adrenergic (Alpha 2) = test: high throughput radioligand binding screen, Adrenergic (Alpha 2)
# Dopamine D2 = target: T4, Dopamine D2 (Homo sapiens, UniProt P14416); test: high throughput radioligand binding screen, Dopamine D2
# T4 construct: Novascreen Biosciences Corp
# respiratory depression = conditions: rat, even at doses of 800 mg/kg, intraperitoneal; cited from earlier work
# Serotonin, 5HT7 = target: T5, Serotonin, 5HT7 (Homo sapiens, UniProt P34969); test: high throughput radioligand binding screen, Serotonin 5HT7
# T5 construct: Novascreen Biosciences Corp
# [4] = morphine 20-100 mg/kg i.p., then compound 23 mg/kg p.o.
# [5] = morphine 20-100 mg/kg i.p., then compound 100 mg/kg p.o.
# [6] = no morphine, compound 23 mg/kg p.o. + 10 mg/kg naloxone i.p.
# [7] = no morphine, compound 100 mg/kg p.o. + 10 mg/kg naloxone i.p.
# [8] = morphine 20-100 mg/kg i.p. control, no replacement compound
# [9] = morphine i.p. + 10 mg/kg naloxone i.p.
# [10] = naloxone i.p. group, no morphine
# T4 sequence (P14416 whole entry): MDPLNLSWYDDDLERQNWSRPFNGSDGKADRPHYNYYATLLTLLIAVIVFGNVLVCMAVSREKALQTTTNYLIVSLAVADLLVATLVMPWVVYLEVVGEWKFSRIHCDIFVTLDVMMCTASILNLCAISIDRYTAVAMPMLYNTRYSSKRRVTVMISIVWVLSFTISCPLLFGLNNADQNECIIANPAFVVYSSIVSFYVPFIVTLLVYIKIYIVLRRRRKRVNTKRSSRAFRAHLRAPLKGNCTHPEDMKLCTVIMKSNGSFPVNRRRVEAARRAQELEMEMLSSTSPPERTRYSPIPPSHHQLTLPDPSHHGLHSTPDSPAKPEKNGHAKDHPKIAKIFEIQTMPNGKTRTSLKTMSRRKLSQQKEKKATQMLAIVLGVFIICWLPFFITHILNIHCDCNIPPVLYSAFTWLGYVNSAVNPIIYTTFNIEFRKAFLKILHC
# T2 sequence (P29274 whole entry): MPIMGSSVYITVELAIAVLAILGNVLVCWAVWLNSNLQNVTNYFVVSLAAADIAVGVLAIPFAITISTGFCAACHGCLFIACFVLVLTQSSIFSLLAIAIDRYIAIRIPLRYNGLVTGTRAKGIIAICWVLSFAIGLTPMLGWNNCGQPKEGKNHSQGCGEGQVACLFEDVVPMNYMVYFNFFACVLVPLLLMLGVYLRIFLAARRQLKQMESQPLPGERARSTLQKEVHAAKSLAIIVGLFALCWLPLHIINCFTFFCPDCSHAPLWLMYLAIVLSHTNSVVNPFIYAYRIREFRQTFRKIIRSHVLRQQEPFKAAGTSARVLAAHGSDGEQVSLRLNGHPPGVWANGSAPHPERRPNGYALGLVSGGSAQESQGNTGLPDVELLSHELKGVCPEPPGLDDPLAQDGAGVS
# T5 sequence (P34969 whole entry): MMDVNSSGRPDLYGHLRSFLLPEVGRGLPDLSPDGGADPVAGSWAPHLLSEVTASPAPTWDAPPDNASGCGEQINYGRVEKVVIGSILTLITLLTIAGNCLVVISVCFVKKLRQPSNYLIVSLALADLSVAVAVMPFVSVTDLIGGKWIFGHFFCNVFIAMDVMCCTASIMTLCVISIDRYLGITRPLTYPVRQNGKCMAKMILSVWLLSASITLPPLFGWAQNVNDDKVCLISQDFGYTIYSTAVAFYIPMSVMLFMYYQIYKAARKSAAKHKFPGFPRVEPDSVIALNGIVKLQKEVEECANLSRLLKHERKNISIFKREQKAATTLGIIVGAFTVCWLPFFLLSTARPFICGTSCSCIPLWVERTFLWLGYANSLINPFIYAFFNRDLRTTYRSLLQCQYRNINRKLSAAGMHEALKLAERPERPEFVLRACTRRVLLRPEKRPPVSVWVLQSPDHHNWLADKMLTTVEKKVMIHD
# T1 sequence (A0A286XTF2 1-366): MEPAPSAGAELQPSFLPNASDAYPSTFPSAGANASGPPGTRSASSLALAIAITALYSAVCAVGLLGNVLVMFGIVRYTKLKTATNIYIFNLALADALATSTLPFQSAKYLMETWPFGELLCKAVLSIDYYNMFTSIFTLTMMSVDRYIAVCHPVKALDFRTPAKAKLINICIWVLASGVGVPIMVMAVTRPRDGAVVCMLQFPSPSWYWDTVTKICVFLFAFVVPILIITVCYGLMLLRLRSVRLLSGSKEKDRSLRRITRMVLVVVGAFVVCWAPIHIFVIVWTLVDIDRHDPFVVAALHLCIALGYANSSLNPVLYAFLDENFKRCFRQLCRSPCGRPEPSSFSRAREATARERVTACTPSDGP
smiles,measurement,setting,value
CC[C@@H]1CN2CC[C@@]3(O)C(=Nc4cccc(OC)c43)[C@@H]2C[C@@H]1/C(=C\OC)C(=O)OC [7-hydroxymitragynine],opioid agonist potency,opioid receptors,higher potency than morphine
same,antinociceptive activity,mice,potent antinociceptive activity
"CCC(=O)C(CC(C)N(C)C)(c1ccccc1)c1ccccc1 (centres unmarked) [Methadone, methadone]",Jumping Frequency,[1]; [4],0.00 ± 0.00
same,Last Day % Weight Control,[1]; [4],100.1 ± 0.8121 %
same,Locomotor Activity,[1]; [4],1866 ± 225.9
same,Paw Tremor Frequency,[1]; [4],110.7 ± 8.809
same,Teeth Chattering Frequency,[1]; [4],81.20 ± 8.704
same,Wet Dog Shakes Frequency,[1]; [4],5.600 ± 0.9684
same,Jumping Frequency,[1]; [5],1.111 ± 0.7536
same,Last Day % Weight Control,[1]; [5],100.1 ± 1.205 %
same,Locomotor Activity,[1]; [5],2512 ± 131.5
same,Paw Tremor Frequency,[1]; [5],8.444 ± 1.692
same,Teeth Chattering Frequency,[1]; [5],0.00 ± 0.00
same,Wet Dog Shakes Frequency,[1]; [5],0.6667 ± 0.3333
same,Jumping Frequency,withdrawal symptoms; [6],0.00 ± 0.00
same,Last Day % Weight Control,withdrawal symptoms; [6],96.64 ± 1.046 %
same,Locomotor Activity,withdrawal symptoms; [6],2595 ± 288.4
same,Paw Tremor Frequency,withdrawal symptoms; [6],6.400 ± 1.462
same,Teeth Chattering Frequency,withdrawal symptoms; [6],0.00 ± 0.00
same,Wet Dog Shakes Frequency,withdrawal symptoms; [6],2.000 ± 0.5164
same,Jumping Frequency,withdrawal symptoms; [7],0.00 ± 0.00
same,Last Day % Weight Control,withdrawal symptoms; [7],98.30 ± 0.6976 %
same,Paw Tremor Frequency,withdrawal symptoms; [7],5.000 ± 1.549
same,Teeth Chattering Frequency,withdrawal symptoms; [7],0.00 ± 0.00
same,Wet Dog Shakes Frequency,withdrawal symptoms; [7],1.900 ± 0.5859
"CN1CC[C@]23c4c5ccc(O)c4O[C@H]2[C@@H](O)C=C[C@H]3[C@H]1C5 [Morphine, morphine]",Jumping Frequency,[1]; [8],21.6 ± 4.378
same,Last Day % Weight Control,[1]; [8],89.64 ± 0.6012 %
same,Locomotor Activity,[1]; [8],1870 ± 114.2
same,Paw Tremor Frequency,[1]; [8],156.2 ± 7.124
same,Teeth Chattering Frequency,[1]; [8],76.10 ± 6.572
same,Wet Dog Shakes Frequency,[1]; [8],9.433 ± 1.334
same,Jumping Frequency,withdrawal symptoms; [9],21.6 ± 4.378
same,Last Day % Weight Control,withdrawal symptoms; [9],89.64 ± 0.6012 %
same,Locomotor Activity,withdrawal symptoms; [9],1870 ± 114.2
same,Paw Tremor Frequency,withdrawal symptoms; [9],156.2 ± 7.124
same,Teeth Chattering Frequency,withdrawal symptoms; [9],76.10 ± 6.572
same,Wet Dog Shakes Frequency,withdrawal symptoms; [9],9.433 ± 1.334
"C=CCN1CC[C@]23c4c5ccc(O)c4O[C@H]2C(=O)CC[C@@]3(O)[C@H]1C5 [Naloxone, naloxone]",Jumping Frequency,withdrawal symptoms; [10],1.800 ± 0.9978
same,Last Day % Weight Control,withdrawal symptoms; [10],99.94 ± 1.225 %
same,Locomotor Activity,withdrawal symptoms; [10],3291 ± 145.3
same,Paw Tremor Frequency,withdrawal symptoms; [10],3.800 ± 0.9978
same,Teeth Chattering Frequency,withdrawal symptoms; [10],0.00 ± 0.00
same,Wet Dog Shakes Frequency,withdrawal symptoms; [10],0.6000 ± 0.3399
CC[C@@H]1CN2CC[C@]3(Nc4cccc(OC)c4C3=O)[C@@H]2C[C@@H]1/C(=C\OC)C(=O)OC [mitragynine pseudoindoxyl],opioid agonist potency,opioid receptors,higher potency than morphine
CC[C@@H]1CN2CCc3c([nH]c4cccc(OC)c34)[C@@H]2C[C@@H]1/C(=C\OC)C(=O)OC [mitragynine],pKi,delta-opioid receptor,7.22±0.21
same,"sample stability, variation",[2],≤ 15%
same,naloxone-precipitated morphine withdrawal symptoms,"[1]; mice, p.o. for six days after morphine, in a similar manner as methadone",reduced
same,Jumping Frequency,[1]; [4],0.00 ± 0.00
same,Last Day % Weight Control,[1]; [4],101.3 ± 0.8619 %
same,Locomotor Activity,[1]; [4],2485 ± 119.1
same,Paw Tremor Frequency,[1]; [4],3.200 ± 0.7424
same,Teeth Chattering Frequency,[1]; [4],0.00 ± 0.00
same,Wet Dog Shakes Frequency,[1]; [4],0.6000 ± 0.2667
same,Percentage inhibition of radioligand binding,Adenosine A2A,Adenosine A2A: 65.66
same,analgesic and antitussive properties,[3],comparable to codeine
same,opioid withdrawal syndrome,[3],suppressed
same,respiratory depression compared with codeine,[3],much less respiratory depression
same,Percentage inhibition of radioligand binding,"Serotonin, 5HT2C","Serotonin, 5HT2C: 58.77"
same,Percentage inhibition of radioligand binding,Adrenergic (Alpha 2),Adrenergic (Alpha 2): 61.92
same,Percentage inhibition of radioligand binding,Dopamine D2,Dopamine D2: 54.22
same,respiratory depression,respiratory depression,failed to identify respiratory depression
same,Jumping Frequency,withdrawal symptoms; [6],0.00 ± 0.00
same,Last Day % Weight Control,withdrawal symptoms; [6],98.85 ± 0.8938 %
same,Locomotor Activity,withdrawal symptoms; [6],3010 ± 108.1
same,Paw Tremor Frequency,withdrawal symptoms; [6],1.800 ± 0.6464
same,Teeth Chattering Frequency,withdrawal symptoms; [6],0.00 ± 0.00
same,Wet Dog Shakes Frequency,withdrawal symptoms; [6],0.00 ± 0.00
same,Percentage inhibition of radioligand binding,"Serotonin, 5HT7","Serotonin, 5HT7: 64.41"
